According to patent US9302018B2, “Fluorescent probe for imaging lymph nodes” (Eisai R&D Management Co., Ltd., priority 2010, dated 2016):

How the values were obtained:
[1] = Maximum absorbance wavelength and molar extinction coefficient in ethanol; type: physicochemical; details: for Molar Extinction Coefficient (ε): in ethanol; for λmax (EtOH): maximum absorbance wavelength in ethanol
[2] = Fluorescence lifetime (TemPro fluorescence lifetime photometer); type: physicochemical; details: excitation 740 nm, fluorescence 816 nm
Protocol: The fluorescence lifetimes of the fluorescence probes of the present invention were measured. The TemPro fluorescence lifetime photometer (manufactured by Horiba, Ltd.) was used for measurement. Table 3 indicates the values for a chloroform solution containing each near-infrared fluorescent dye at a concentration of 3.2×10^−2 mM and an aqueous solution of ICG (control), and Table 4 indicates values obtained from each of the near-infrared fluorescent dyes incorporated in the liposomes at a concentration of 3.2×10^−2 mM. A 740 nm semiconductor laser was used for the excitation light, and the lifetime spectra obtained at a fluorescence wavelength of 816 nm was analyzed for two components.

[3] = Fluorescence detectability of fluorescent probe in vitro (brightness score, Image J); type: physicochemical; details: excitation <780 nm, fluorescence >810 nm
Protocol: Near-infrared fluorescence intensity was measured for the fluorescent dye-containing liposomes prepared in the manner described above with an aqueous solution of ICG serving as a control. 100 μL of liposome suspension containing a dye of a predetermined concentration or the ICG aqueous solution were added to a 96-well plate and irradiated with excitation light (LED light source, <780 nm) to detect the generated fluorescence (>810 nm). Brightness was evaluated using Image J image processing software.
In the table, values indicate the brightness score as determined with the Image J software (maximum value: 255), with the values shown in parentheses indicate the standard deviation.

[4] = system: mouse popliteal lymph node; test: Fluorescent probe anchoring property in mouse popliteal lymph node; type: in vivo
Protocol: In order to investigate the lymph node anchoring property of the fluorescent probe, an ICG-8-containing fluorescent probe dispersion (liposome mean particle diameter: 240 nm, 0.2 mL, phospholipid concentration: 10 mM) or an ICG aqueous solution serving as a control (0.2 mL, 3.2 mM) was injected into the foreleg of mice (FIG. 6A) in the same manner as Example 5. Ten minutes later, the epidermal tissue was peeled off, and the site was irradiated with excitation light (LED light source, <780 nm) and the generated fluorescence (>810 nm) was detected with a monochromatic camera.
To investigate primary lymph node anchoring rate after the passage of a prescribed amount of time, an ICG-8-containing fluorescent probe or ICG aqueous solution was administered to mice in the same manner as described above. […] The p-values were calculated using Fisher's exact test.

[5] = chloroform solution, 3.2×10^−2 mM

CCCCCCN(CCCCCC)c1ccc(OC2=C(/C=C/C3=[N+](CCCCS(=O)(=O)[O-])c4ccc5ccccc5c4C3(C)C)CCC/C2=C\C=C2\N(CCCCS(=O)(=O)[O-])c3ccc4ccccc4c3C2(C)C)cc1.[Na+] [ICG-9, sodium [4-(2-((E)-2-((E)-2-(4-(dihexyamino)phenoxy)-3-((E)-2-(1,1-dimethyl-3-(4-sulfonatebutyl)-1H-benzo[e]indol-2(3H)-ylidene)ethylidene)cyclohexenyl)vinyl)-1,1-dimethyl-1H-benzo[e]indolium-3-yl)butane-1-sulfonate]]
Molar Extinction Coefficient (ε) [1]: 1.24×10^5 | λmax (EtOH) [1]: 810 nm

CCCCCCN1/C(=C/C=C/C=C/C=C/C2=[N+](CCCCS(=O)(=O)[O-])c3ccc4ccccc4c3C2(C)C)C(C)(C)c2c1ccc1ccccc21 [ICG-8-C6, 4(2-((1E,3E,5E,7E)-7-(1,1-dimethyl-3-hexyl-1H-benzo[e]indol-2(3H)-ylidene)hepta-1,3,5-trienyl)-1,1-dimethyl-1H-benzo[e]indolium-3-yl)butane-1-sulfonic acid]
Molar Extinction Coefficient (ε) [1]: 2.34×10^5 | λmax (EtOH) [1]: 787 nm | Fluorescence lifetime, first component (%) [2, 5]: 69% | Fluorescence lifetime, first component (ns) [2, 5]: 1.25 ns | Fluorescence lifetime, second component (%) [2, 5]: 31% | Fluorescence lifetime, second component (ns) [2, 5]: 0.31 ns

CCCCCCCCN1/C(=C/C=C/C=C/C=C/C2=[N+](CCCCS(=O)(=O)[O-])c3ccc4ccccc4c3C2(C)C)C(C)(C)c2c1ccc1ccccc21 [ICG-8-C8, 4(2-((1E,3E,5E,7E)-7-(1,1-dimethyl-3-octyl-1H-benzo[e]indol-2(3H)-ylidene)hepta-1,3,5-trienyl)-1,1-dimethyl-1H-benzo[e]indolium-3-yl)butane-1-sulfonic acid]
Molar Extinction Coefficient (ε) [1]: 2.63×10^5 | λmax (EtOH) [1]: 788 nm

CCCCN1/C(=C/C=C/C=C/C=C/C2=[N+](CCCCS(=O)(=O)[O-])c3ccc4ccccc4c3C2(C)C)C(C)(C)c2c1ccc1ccccc21 [ICG-8-C4, 4(2-((1E,3E,5E,7E)-7-(1,1-dimethyl-3-butyl-1H-benzo[e]indol-2(3H)-ylidene)hepta-1,3,5-trienyl)-1,1-dimethyl-1H-benzo[e]indolium-3-yl)butane-1-sulfonic acid]
Molar Extinction Coefficient (ε) [1]: 2.52×10^5 | λmax (EtOH) [1]: 787 nm

CC1(C)C(/C=C/C=C/C=C/C=C2/N(CCC(=O)O)c3ccc4ccccc4c3C2(C)C)=[N+](CCCCS(=O)(=O)[O-])c2ccc3ccccc3c21 [ICG-6, 4-(2-((1E,3E,5E,7E)-7-(3-(2-carboxyethyl)-1,1-dimethyl-1H-benzo[e]indol-2-(3H)-ylidene)hepta-1,3,5-trienyl)-1,1-dimethyl-1H-benzo[e]indolium-3-yl)butane-1-sulfonic acid]
Molar Extinction Coefficient (ε) [1]: 1.86×10^5 | λmax (EtOH) [1]: 786 nm

CCCCCCCCCCN1/C(=C/C=C/C=C/C=C/C2=[N+](CCCCS(=O)(=O)[O-])c3ccc4ccccc4c3C2(C)C)C(C)(C)c2c1ccc1ccccc21 [ICG-8-C10, 4(2-((1E,3E,5E,7E)-7-(1,1-dimethyl-3-decyl-1H-benzo[e]indol-2(3H)-ylidene)hepta-1,3,5-trienyl)-1,1-dimethyl-1H-benzo[e]indolium-3-yl)butane-1-sulfonic acid]
Molar Extinction Coefficient (ε) [1]: 2.50 × 10^5 | λmax (EtOH) [1]: 788 nm | Fluorescence lifetime, first component (%) [2, 5]: 67% | Fluorescence lifetime, first component (ns) [2, 5]: 1.27 ns | Fluorescence lifetime, second component (%) [2, 5]: 33% | Fluorescence lifetime, second component (ns) [2, 5]: 0.41 ns

CC1(C)C(/C=C/C=C/C=C/C=C2\N(CCCCS(=O)(=O)[O-])c3ccc4ccccc4c3C2(C)C)=[N+](CCCCS(=O)(=O)[O-])c2ccc3ccccc3c21.[Na+] [ICG, Indocyanine green]
Molar Extinction Coefficient (ε) [1]: 1.47 × 10^5 | λmax (EtOH) [1]: 787 nm | brightness score (Image J, maximum value: 255), SD in parentheses ([3]; dye concentration 3.2 mM): 27(5) | brightness score (Image J, maximum value: 255), SD in parentheses ([3]; dye concentration 3.2 × 10−1 mM): 38(6) | brightness score (Image J, maximum value: 255), SD in parentheses ([3]; dye concentration 3.2 × 10−2 mM): 98(5) | brightness score (Image J, maximum value: 255), SD in parentheses ([3]; dye concentration 3.2 × 10−3 mM): 118(10) | brightness score (Image J, maximum value: 255), SD in parentheses ([3]; dye concentration 3.2 × 10−4 mM): 61(7) | Fluorescence lifetime, first component (ns) ([2]; aqueous solution (control)): 0.01~0.15 ns | No. of mice in which fluorescence was observed in primary lymph node only/total no. of mice in experiment ([4]; 1 h elapsed from administration): 0/4 | No. of mice in which fluorescence was observed in primary lymph node only/total no. of mice in experiment ([4]; 3 h elapsed from administration): 2/5 | No. of mice in which fluorescence was observed in primary lymph node only/total no. of mice in experiment ([4]; 6 h elapsed from administration): 0/4 | No. of mice in which fluorescence was observed in primary lymph node only/total no. of mice in experiment ([4]; 24 h elapsed from administration): 0/3 | Lymph nodes from which fluorescence was detected ([4]; mice, 0.2 mL into foreleg, ten minutes later, probe liposome mean particle diameter 240 nm, ICG aqueous solution 3.2 mM): emitted at the first popliteal lymph node from the foreleg as well as from the second external iliac lymph node
